Assays:
[1] = target: T1, Human PDGFRα, cytoplasmic domain (GST-PDGFRα) (Homo sapiens, UniProt P16234); test: Human PDGFRα biochemical inhibition assay (off-chip Mobility Shift Assay)
T1 construct: made in house

[2] = target: T2, Human PDGFRβ, cytoplasmic domain (GST-PDGFRβ) (Homo sapiens, UniProt P09619); test: Human PDGFRβ biochemical inhibition assay (off-chip Mobility Shift Assay)
T2 construct: made in house
Summary of the method: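 GST-tagged cytoplasmic domain (aa 557-1106) from baculovirus was incubated 1 h at room temperature with compound, CSKtide, ATP at Km and Mg²⁺ in HEPES buffer, pH 7.5. Phosphorylated and unphosphorylated peptide were separated by off-chip mobility shift, and the product ratio P/(P+S) gave percent inhibition.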

T2 sequence (P09619 with tags, fused parts or gaps): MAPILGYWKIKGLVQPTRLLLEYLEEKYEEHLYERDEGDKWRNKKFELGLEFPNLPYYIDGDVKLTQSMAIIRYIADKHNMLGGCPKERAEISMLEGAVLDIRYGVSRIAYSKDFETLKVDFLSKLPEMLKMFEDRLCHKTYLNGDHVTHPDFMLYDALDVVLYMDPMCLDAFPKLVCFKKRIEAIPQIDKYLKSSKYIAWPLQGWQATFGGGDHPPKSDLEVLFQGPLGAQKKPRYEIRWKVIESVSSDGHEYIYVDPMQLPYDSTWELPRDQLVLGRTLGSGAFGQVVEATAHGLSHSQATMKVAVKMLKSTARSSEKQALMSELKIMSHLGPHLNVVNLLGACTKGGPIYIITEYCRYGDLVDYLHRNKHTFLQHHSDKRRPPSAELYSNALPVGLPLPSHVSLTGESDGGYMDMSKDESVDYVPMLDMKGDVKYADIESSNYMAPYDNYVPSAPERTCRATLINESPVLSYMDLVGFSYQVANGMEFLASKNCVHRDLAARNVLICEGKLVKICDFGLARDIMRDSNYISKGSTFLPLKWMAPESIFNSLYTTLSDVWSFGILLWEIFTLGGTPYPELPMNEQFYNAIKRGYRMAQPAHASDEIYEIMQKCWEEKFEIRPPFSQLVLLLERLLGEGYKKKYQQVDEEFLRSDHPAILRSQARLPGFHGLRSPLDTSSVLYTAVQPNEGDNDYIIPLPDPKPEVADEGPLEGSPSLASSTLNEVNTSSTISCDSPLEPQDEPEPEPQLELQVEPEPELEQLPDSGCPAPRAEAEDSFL
T1 sequence (P16234 550-1089 T674I): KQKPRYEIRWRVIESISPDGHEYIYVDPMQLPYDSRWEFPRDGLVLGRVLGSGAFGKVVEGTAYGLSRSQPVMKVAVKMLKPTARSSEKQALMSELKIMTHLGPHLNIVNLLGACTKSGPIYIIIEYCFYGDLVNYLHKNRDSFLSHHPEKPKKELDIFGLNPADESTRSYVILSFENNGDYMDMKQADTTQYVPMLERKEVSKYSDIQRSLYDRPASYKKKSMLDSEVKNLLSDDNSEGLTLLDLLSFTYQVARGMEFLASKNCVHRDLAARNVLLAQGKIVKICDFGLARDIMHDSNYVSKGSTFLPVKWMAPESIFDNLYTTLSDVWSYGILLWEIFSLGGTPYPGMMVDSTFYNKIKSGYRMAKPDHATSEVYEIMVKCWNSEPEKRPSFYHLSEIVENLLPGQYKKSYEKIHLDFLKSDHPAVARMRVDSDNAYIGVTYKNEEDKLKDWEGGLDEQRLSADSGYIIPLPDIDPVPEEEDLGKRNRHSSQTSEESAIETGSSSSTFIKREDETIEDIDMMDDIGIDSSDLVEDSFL

CCn1cc2ncc(N[C@@H](C)c3cccc(NC(=O)c4cnc(CN5CC6(COC6)C5)c(F)c4)c3)nc2n1 [Compound 500, (S)-6-((2-oxa-6-azaspiro[3.3]heptan-6-yl)methyl)-N-(3-(1-((2-ethyl-2H-pyrazolo[3,4-b]pyrazin-6-yl)amino)ethyl)phenyl)-5-fluoronicotinamide]
IC50 [1]: ≥ 1000 nM | IC50 [2]: ≥ 1000 nM

CCn1cc2ncc(N[C@@H](C)c3cc(NC(=O)c4cncc(C)c4)ccc3C)cc2n1 [Compound 501, (S)-N-(3-(1-((2-ethyl-2H-pyrazolo[4,3-b]pyridin-6-yl)amino)ethyl)-4-methylphenyl)-5-methylnicotinamide]
IC50 [1]: < 300 nM | IC50 [2]: < 300 nM

CCn1cc2ncc(N[C@@H](C)c3cccc(NC(=O)c4ccc(CN5CCN(C)CC5)c(C5CC5)c4)c3)nc2n1 [Compound 502, (S)-3-cyclopropyl-N-(3-(1-((2-ethyl-2H-pyrazolo[3,4-b]pyrazin-6-yl)amino)ethyl)phenyl)-4-((4-methylpiperazin-1-yl)methyl)benzamide]
IC50 [1]: < 300 nM | IC50 [2]: < 300 nM

CCn1cc2ncc(N[C@@H](C)c3cccc(NC(=O)c4cnc(CN5CC6(COC6)C5)c(Cl)c4)c3)nc2n1 [Compound 503, (S)-6-((2-oxa-6-azaspiro[3.3]heptan-6-yl)methyl)-5-chloro-N-(3-(1-((2-ethyl-2H-pyrazolo[3,4-b]pyrazin-6-yl)amino)ethyl)phenyl)nicotinamide]
IC50 [1]: 300 to 1000 nM | IC50 [2]: 300 to 1000 nM

CCn1cc2ncc(N[C@@H](C)c3cccc(NC(=O)c4ccc(CN5CCN(C)CC5)c(C(F)F)c4)c3)nc2n1 [Compound 504, (S)-3-(difluoromethyl)-N-(3-(1-((2-ethyl-2H-pyrazolo[3,4-b]pyrazin-6-yl)amino)ethyl)phenyl)-4-((4-methylpiperazin-1-yl)methyl)benzamide]
IC50 [1]: < 300 nM | IC50 [2]: < 300 nM

CCn1cc2ncc(N[C@@H](C)c3cccc(NC(=O)c4ccc(CN5CC6(COC6)C5)c(C5CC5)c4)c3)nc2n1 [Compound 505, (S)-4-((2-oxa-6-azaspiro[3.3]heptan-6-yl)methyl)-3-cyclopropyl-N-(3-(1-((2-ethyl-2H-pyrazolo[3,4-b]pyrazin-6-yl)amino)ethyl)phenyl)benzamide]
IC50 [1]: < 300 nM | IC50 [2]: < 300 nM

CCn1cc2ncc(N[C@@H](C)c3cccc(NC(=O)c4ccc(CN5CC6(COC6)C5)c(C(F)F)c4)c3)nc2n1 [Compound 506, (S)-4-((2-oxa-6-azaspiro[3.3]heptan-6-yl)methyl)-3-(difluoromethyl)-N-(3-(1-((2-ethyl-2H-pyrazolo[3,4-b]pyrazin-6-yl)amino)ethyl)phenyl)benzamide]
IC50 [1]: < 300 nM | IC50 [2]: < 300 nM

CCn1cc2ncc(N[C@@H](C)c3cc(NC(=O)c4ccc(F)c(Cl)c4)ccc3C)nc2n1 [Compound 507, (S)-3-chloro-N-(3-(1-((2-ethyl-2H-pyrazolo[3,4-b]pyrazin-6-yl)amino)ethyl)-4-methylphenyl)-4-fluorobenzamide]
IC50 [1]: < 300 nM | IC50 [2]: < 300 nM

CCn1cc2ncc(N[C@@H](C)c3cc(NC(=O)c4ccc(Cl)c(C)c4)ccc3C)nc2n1 [Compound 508, (S)-4-chloro-N-(3-(1-((2-ethyl-2H-pyrazolo[3,4-b]pyrazin-6-yl)amino)ethyl)-4-methylphenyl)-3-methylbenzamide]
IC50 [1]: < 300 nM | IC50 [2]: < 300 nM

CCn1cc2ncc(N[C@@H](C)c3cc(NC(=O)c4cnc(C)c(C)c4)ccc3C)nc2n1 [Compound 509, (S)-N-(3-(1-((2-ethyl-2H-pyrazolo[3,4-b]pyrazin-6-yl)amino)ethyl)-4-methylphenyl)-5,6-dimethylnicotinamide]
IC50 [1]: < 300 nM | IC50 [2]: < 300 nM

CCn1cc2ncc(N[C@@H](C)c3cc(NC(=O)c4cncc(C)c4)ccc3C)nc2n1 [Compound 510, (S)-N-(3-(1-((2-ethyl-2H-pyrazolo[3,4-b]pyrazin-6-yl)amino)ethyl)-4-methylphenyl)-5-methylnicotinamide]
IC50 [1]: < 300 nM | IC50 [2]: < 300 nM

CCn1cc2ncc(N[C@@H](C)c3cc(NC(=O)c4ccc(OC(F)F)nc4)ccc3C)nc2n1 [Compound 511, (S)-6-(difluoromethoxy)-N-(3-(1-((2-ethyl-2H-pyrazolo[3,4-b]pyrazin-6-yl)amino)ethyl)-4-methylphenyl)nicotinamide]
IC50 [1]: < 300 nM | IC50 [2]: < 300 nM

CCn1cc2ncc(N[C@@H](C)c3cc(NC(=O)c4cnc(F)c(C)c4)ccc3C)nc2n1 [Compound 512, (S)-N-(3-(1-((2-ethyl-2H-pyrazolo[3,4-b]pyrazin-6-yl)amino)ethyl)-4-methylphenyl)-6-fluoro-5-methylnicotinamide]
IC50 [1]: < 300 nM | IC50 [2]: < 300 nM

CCNc1ncc(C(=O)Nc2ccc(C)c([C@H](C)Nc3cnc4cn(CC)nc4n3)c2)cc1C [Compound 513, (S)-N-(3-(1-((2-ethyl-2H-pyrazolo[3,4-b]pyrazin-6-yl)amino)ethyl)-4-methylphenyl)-6-(ethylamino)-5-methylnicotinamide]
IC50 [1]: < 300 nM | IC50 [2]: < 300 nM

CCn1cc2ncc(N[C@@H](C)c3cc(NC(=O)c4cnc(N5CCN(C)CC5)c(C)c4)ccc3C)nc2n1 [Compound 514, (S)-N-(3-(1-((2-ethyl-2H-pyrazolo[3,4-b]pyrazin-6-yl)amino)ethyl)-4-methylphenyl)-5-methyl-6-(4-methylpiperazin-1-yl)nicotinamide]
IC50 [1]: < 300 nM | IC50 [2]: < 300 nM

CCn1cc2ncc(N[C@@H](C)c3cc(NC(=O)c4cnc(NC5CC5)c(C)c4)ccc3C)nc2n1 [Compound 515, (S)-6-(cyclopropylamino)-N-(3-(1-((2-ethyl-2H-pyrazolo[3,4-b]pyrazin-6-yl)amino)ethyl)-4-methylphenyl)-5-methylnicotinamide]
IC50 [1]: < 300 nM | IC50 [2]: < 300 nM

CCc1ccc(NC(=O)c2ccc(C(F)(F)F)nc2)cc1[C@H](C)Nc1cnc2cn(CC)nc2n1 [Compound 516, (S)-N-(4-ethyl-3-(1-((2-ethyl-2H-pyrazolo[3,4-b]pyrazin-6-yl)amino)ethyl)phenyl)-6-(trifluoromethyl)nicotinamide]
IC50 [1]: ≥ 1000 nM | IC50 [2]: ≥ 1000 nM

CCn1cc2ncc(N[C@@H](C)c3cc(NC(=O)c4cc(F)c(CN5CCN(C)CC5)c(Cl)c4)ccc3C)nc2n1 [Compound 518, (S)-3-chloro-N-(3-(1-((2-ethyl-2H-pyrazolo[3,4-b]pyrazin-6-yl)amino)ethyl)-4-methylphenyl)-5-fluoro-4-((4-methylpiperazin-1-yl)methyl)benzamide]
IC50 [1]: < 300 nM | IC50 [2]: < 300 nM

CCn1cc2ncc(N[C@@H](C)c3cc(NC(=O)c4cc(F)c(CN5CCOCC5)c(Cl)c4)ccc3C)nc2n1 [Compound 520, (S)-3-chloro-N-(3-(1-((2-ethyl-2H-pyrazolo[3,4-b]pyrazin-6-yl)amino)ethyl)-4-methylphenyl)-5-fluoro-4-(morpholinomethyl) benzamide]
IC50 [1]: < 300 nM | IC50 [2]: < 300 nM

CCn1cc2ncc(N[C@@H](C)c3cc(NC(=O)c4cc(F)c(CN5CC[C@@H](O)C5)c(Cl)c4)ccc3C)nc2n1 [Compound 521, 3-chloro-N-(3-((S)-1-((2-ethyl-2H-pyrazolo[3,4-b]pyrazin-6-yl)amino)ethyl)-4-methylphenyl)-5-fluoro-4-(((R)-3-hydroxypyrrolidin-1-yl)methyl) benzamide]
IC50 [1]: < 300 nM | IC50 [2]: < 300 nM

CCn1cc2ncc(N[C@@H](C)c3cc(NC(=O)c4ccc(CN5CCCC5)c(C)c4)ccc3C)nc2n1 [Compound 522, (S)-N-(3-(1-((2-ethyl-2H-pyrazolo[3,4-b]pyrazin-6-yl)amino)ethyl)-4-methylphenyl)-3-methyl-4-(pyrrolidin-1-ylmethyl)benzamide]
IC50 [1]: < 300 nM | IC50 [2]: < 300 nM

CCn1cc2ncc(N[C@@H](C)c3cc(NC(=O)c4ccc(CN5CCOCC5)c(C)c4)ccc3C)nc2n1 [Compound 523, (S)-N-(3-(1-((2-ethyl-2H-pyrazolo[3,4-b]pyrazin-6-yl)amino)ethyl)-4-methylphenyl)-3-methyl-4-(morpholinomethyl) benzamide]
IC50 [1]: < 300 nM | IC50 [2]: < 300 nM

CCn1cc2ncc(N[C@@H](C)c3cc(NC(=O)c4ccc(CN5CCN(C)CC5)c(C)c4)ccc3C)nc2n1 [Compound 524, (S)-N-(3-(1-((2-ethyl-2H-pyrazolo[3,4-b]pyrazin-6-yl)amino)ethyl)-4-methylphenyl)-3-methyl-4-((4-methylpiperazin-1-yl)methyl)benzamide]
IC50 [1]: < 300 nM | IC50 [2]: < 300 nM

CCn1cc2ncc(N[C@@H](C)c3cc(NC(=O)c4cc(C)c(CN5CCOCC5)c(F)c4)ccc3C)nc2n1 [Compound 526, (S)-N-(3-(1-((2-ethyl-2H-pyrazolo[3,4-b]pyrazin-6-yl)amino)ethyl)-4-methylphenyl)-3-fluoro-5-methyl-4-(morpholinomethyl)benzamide]
IC50 [1]: < 300 nM | IC50 [2]: < 300 nM

CCn1cc2ncc(N[C@@H](C)c3cc(NC(=O)c4cc(C)c(CN5CC[C@@H](O)C5)c(F)c4)ccc3C)nc2n1 [Compound 527, N-(3-((S)-1-((2-ethyl-2H-pvrazolo[3,4-b]pyrazin-6-yl)amino)ethyl)-4-methylphenyl)-3-fluoro-4-(((R)-3-hydroxypyrrolidin-1-yl)methyl)-5-methylbenzamide]
IC50 [1]: < 300 nM | IC50 [2]: < 300 nM

CCn1cc2ncc(N[C@@H](C)c3cc(NC(=O)c4cc(C)c(CN5CCN(C)CC5)c(F)c4)ccc3C)nc2n1 [Compound 528, (S)-N-(3-(1-((2-ethyl-2H-pyrazolo[3,4-b]pyrazin-6-yl)amino)ethyl)-4-methylphenyl)-3-fluoro-5-methyl-4-((4-methylpiperazin-1-yl)methyl) benzamide]
IC50 [1]: < 300 nM | IC50 [2]: < 300 nM

Cc1cncc(C(=O)Nc2cccc([C@H](C)Nc3cnc4[nH]ncc4n3)c2)c1 [Compound 529, (S)-N-(3-(1-((1H-pyrazolo[3,4-b]pyrazin-5-yl)amino)ethyl)phenyl)-5-methylnicotinamide]
IC50 [1]: < 300 nM | IC50 [2]: < 300 nM

Reference: patent US20230102554A1 (GB002, INC., priority 2019, published 2023)
